{
  "source": "patent US12440466B2",
  "about": "“Fatty acid derivatives for treating non-alcoholic steatohepatitis” (BASF AS, priority 2017, dated 2025)",
  "key": {"CDAA/high-fat fed mice [1]": {"tested_on": "CDAA/high-fat fed mice", "assay": "Hepatic lipidomic analysis, CDAA/high-fat diet mouse model", "format": "in vivo", "conditions": "Compound A 112 mg/kg bw per day or equimolar EPA, orally", "experimental": "(§1) In Biological Examples 1-7, studies were performed in male C56BL/6J mice (9 weeks old). Mice were fed either choline-sufficient (CS) or choline deficient high-fat diets (31% total calories; “CDAA/high-fat”). The NASH inducing diet was instigated 6 weeks prior to the commencement of treatment in order to design the study as a treatment/reversal set-up rather than prophylaxis.\nIn Biological Example 7, after 6 weeks of either the CS or CDAA/high-fat diet, mice were administered 112 mg/kg bw per day of Compound A, or an equimolar dose of eicosapentaenoic acid (EPA), delivered orally. Hepatic lipidomic analysis was performed in isolated liver samples from CS (n=9), Compound A (n=9) and EPA (n=8) groups.\nTo further understand the effects of Compound A on hepatic lipid metabolism, lipidomic analysis of CS- and CDAA/high-fat fed mice (“CD”) was performed in isolated liver tissue."}, "MMP-13 mRNA": {"tested_on": "MMP-13 mRNA", "assay": "Hepatic MMP-13 mRNA expression by qPCR, CDAA/high-fat diet mouse model", "format": "in vivo", "conditions": "CDAA/high-fat fed mice; Compound A 0.3 mmol/kg bw/day oral; GLP-1a 0.4 mg/kg once weekly i.p.", "experimental": "Mice were fed either choline-sufficient (CS) or choline deficient high-fat diets (31% total calories; “CDAA/high-fat”). The NASH inducing diet was instigated 6 weeks prior to the commencement of treatment in order to design the study as a treatment/reversal set-up rather than prophylaxis.\nStudies were performed in male C56BL/6J mice (9 weeks old). Mice were divided into 6 experimental groups (n=9 per group) containing either CS or CDAA/high-fat diets, as described above. The NASH inducing CDAA/high fat diet was instigated 6 weeks prior to the commencement of treatment in order to assess treatment/reversal rather than prophylaxis. […] Compound A was administered orally as admix to the high-fat diet whilst GLP-1 agonist was delivered via intraperitoneal injection (i.p.). Fibrosis, inflammation and metabolism related transcripts levels were measured by quantitative real-time polymerase chain reaction (qPCR) in isolated liver tissue."}, "inflammatory genes": {"tested_on": "inflammatory genes", "assay": "Hepatic inflammatory gene expression in ob/ob AMLN mice", "format": "in vivo, mouse", "conditions": "4 weeks, Compound A 112 mg/kg", "experimental": "(§2) Obese diet-induced B6.V-Lepob/Jrj mice (ob/ob) are consistently fibrosis (liver) prone when cholesterol (2%), 40% fat (containing 18% trans-fatty acids) and 20% fructose are added to a high-caloric diet (i.e., AMLN high-fat diet). ob/ob mice on AMLN diet (termed ‘ob/ob AMLN mice’) develop steatohepatitis and fibrosis within a shorter timeframe ([…]) compared with wild-type C57BL/6 mice (AMLN mice) fed the same diet. ob/ob AMLN mice provide an obese diet-induced model of NASH that also allows the study of effects on glycemic control. Development of NASH in the ob/ob AMLN model is confirmed by biopsy.\nIn Biological Examples 10-12, 15, and 19, studies were performed in male ob/ob mice (5 weeks old) fed an AMLN high-fat diet for 15 weeks, then randomized into 3 groups (n=10 per group) to receive either 112 mg/kg bw per day of Compound A via diet, 30 mg/kg bw per day pioglitazone via diet or no treatment (vehicle) for a further 4 weeks. An oral glucose tolerance test (OGTT) was performed at week 3. Hepatic fibrosis was assessed via measurements of hepatic fibrogenic/fibrolytic gene expression by RNA sequencing at 4 weeks."}, "CDAA/high-fat fed mice [2]": {"tested_on": "CDAA/high-fat fed mice", "assay": "Hepatic fibrosis by Sirius Red (SR) morphometry, CDAA/high-fat diet mouse model", "format": "in vivo", "experimental": "as §1\nIn Biological Examples 1-5, mice were divided into 6 experimental groups (n=9 per group) and fed either CS or CDAA/high-fat diets. […] Hepatic fibrosis was assessed by both measurement of hydroxyproline (HYP) content and Sirius Red (SR) morphometry. Fibrosis, inflammation and metabolism related transcripts levels were measured by quantitative real-time polymerase chain reaction (qPCR).\nIn order to more accurately quantify the amount location and functional relevance of the hepatic fibrosis, Sirius Red (SR) morphometry was performed. In contrast to examples 1 and 2 where biochemical assessment of hydroxyproline (HYP) content measuring collagen in the large vessels was used, SR morphometry quantifies the more functionally relevant sinusoidal collagen deposits. 10 areas per slide were measured using 100× magnification."}, "STAM (model) mice": {"tested_on": "STAM (model) mice", "assay": "Fibrosis area by Sirius Red staining, STAM model", "format": "in vivo, mouse", "conditions": "Sirius Red positive area, 6 weeks treatment, Compound A 37 mg/kg/day oral gavage", "text": "In Biological Example 8, pathogen-free 15-day-pregnant C57BL/6 mice were obtained from Charles River Laboratories in Japan Inc. (Kanagawa, Japan). NASH was established in male mice by a single subcutaneous injection of streptozotocin (STZ) (Sigma, USA) after birth and feeding with a high fat diet (HFD; CLEA) Japan, Japan) ad libitum after 4 weeks of age (day 28±2). Mice were randomised into 3 groups of 8 mice at 6 weeks of age the day before the start of treatment: vehicle (saline), Compound A and telmisartan (positive control). Treatment with Compound A at a dose of 37 mg/kg bw per day via oral gavage in conjunction with a high-fat diet was given for 6 weeks before sacrifice. NAFLD activity score (NAS) was calculated according to standardised criteria and fibrosis area was assessed via Sirius Red staining."}, "[3]": {"tested_on": "α-smooth muscle actin (SMA)", "assay": "Hepatic α-SMA content by quantitative IHC in ob/ob AMLN mice", "format": "in vivo, mouse", "conditions": "8 weeks; for α-SMA (total and % of fractional area content): vs vehicle", "experimental": "as §2\nIn Biological Examples 10, 13-14, and 16-18, studies were performed in male ob/ob mice (5 weeks old) fed an AMLN high-fat diet for 18 weeks, then randomized into 6 groups (n=10 per group) to receive either Compound A (at 3 different daily doses, 45 mg/kg, 90 mg/kg or 135 mg/kg) via diet, 30 mg/kg bw per day obeticholic acid (OCA) via diet, or no treatment (vehicle) for a further 8 weeks. Assessment of NASH related parameters and fibrosis was made at study end by quantitative immune histochemistry (IHC) measurements."}, "[4]": {"conditions": "pioglitazone 30 mg/kg, data not shown"}, "[5]": {"conditions": "pioglitazone 30 mg/kg, vs vehicle"}},
  "note": "Marks after values point to notes of the source that are not given here.",
  "data": [
    {"compound": "CC/C=C\\C/C=C\\C/C=C\\C/C=C\\C/C=C\\CCCCOC(CC)C(=O)O", "note": "(stereo not shown) [Compound A, 2-((5Z,8Z,11Z,14Z,17Z)-icosa-5,8,11,14,17-pentaenyloxy)butanoic acid]", "values": [
      {"measurement": "hepatic cholesteryl ester", "setting": "CDAA/high-fat fed mice [1]", "value": "significantly reduced"},
      {"measurement": "hepatic diglycerides (DG)", "setting": "CDAA/high-fat fed mice [1]", "value": "significantly reduced"},
      {"measurement": "hepatic free fatty acids (FFA)", "setting": "CDAA/high-fat fed mice [1]", "value": "significantly reduced"},
      {"measurement": "hepatic triglyceride (TG)", "setting": "CDAA/high-fat fed mice [1]", "value": "significantly reduced"},
      {"measurement": "MMP-13 (relative mRNA expression)", "setting": "MMP-13 mRNA", "value": "1.6***"},
      {"measurement": "MAC-2 expression", "setting": "inflammatory genes; data not shown", "value": "Significant reductions"},
      {"measurement": "MCP-1 transcript levels", "setting": "inflammatory genes; [4]", "value": "Neither compound significantly reduced"},
      {"measurement": "interleukin (IL)-1β transcript levels", "setting": "inflammatory genes; [4]", "value": "Neither compound significantly reduced"},
      {"measurement": "CCR2 expression", "setting": "inflammatory genes; [5]", "value": "Significant reductions"},
      {"measurement": "CD14 expression", "setting": "inflammatory genes; [5]", "value": "Significant reductions"},
      {"measurement": "CD68 expression", "setting": "inflammatory genes; [5]", "value": "Significant reductions"},
      {"measurement": "transcript levels of TGF-β1", "setting": "inflammatory genes; [5]", "value": "reduced"},
      {"measurement": "transcript levels of TGF-β1 receptor (TGFRβ)", "setting": "inflammatory genes; [5]", "value": "reduced"},
      {"measurement": "Galectin-3 (Gal-3) levels", "setting": "inflammatory genes; vs vehicle", "value": "significantly reduced"},
      {"measurement": "Fibrosis area (mean %)", "setting": "CDAA/high-fat fed mice [2]; HD 0.3 mmol/kg bw per day", "value": "1.56* %"},
      {"measurement": "Fibrosis area (mean %)", "setting": "CDAA/high-fat fed mice [2]; LD 0.15 mmol/kg bw/day", "value": "0.76*** %"},
      {"measurement": "Fibrosis area (%)", "setting": "STAM (model) mice", "value": 0.79, "unit": "%"},
      {"measurement": "area percentage of α-SMA content compared to pre-treatment biopsy", "setting": "[3]; Compound A 45 mg/kg", "value": "non-significant trend"},
      {"measurement": "area percentage of α-SMA content compared to pre-treatment biopsy", "setting": "[3]; Compound A 90 mg/kg", "value": "non-significant trend"},
      {"measurement": "α-SMA (total and % of fractional area content)", "setting": "[3]; Compound A 90 mg/kg", "value": "markedly reduced"},
      {"measurement": "area percentage of α-SMA content compared to pre-treatment biopsy", "setting": "[3]; Compound A 135 mg/kg", "value": "decreased"},
      {"measurement": "α-SMA (total and % of fractional area content)", "setting": "[3]; Compound A 135 mg/kg", "value": "markedly reduced"}
    ]}
  ]
}
